Assay [1] concerns Daf-2 mutant C. elegans strain e1370. Description: Dauer formation screen in Daf-2 mutant C. elegans. The format is in vivo. The settings on record: L2 stage worms soaked in 100 μM compound, warmed to 25° C. The method, then:
The Daf-2 mutant C. elegans strain e1370 was grown on nematode growth media (NGM) agar plates with E. coli (OP50) under standard conditions at 16° C. C. elegans mutant strains were obtained from the Caenorhabditis Genetics Center. Twenty synchronized early L2 animals grown at 16° C. were soaked in 96-well plates containing 100 μM of compounds/2% OP50 culture/M9 buffer, and then incubated at 25° C. for 4 days.
TG-Bz library (1120 members) compounds were screened in L2 stage worms grown at 16° C. by soaking in a 100 μM chemical solution and were warmed up to 25° C., in which 100% of untreated Daf-2 mutant larvae enter dauer within 24 hours. […] E3 is the TGBz control compound (FIG. 2C).

Assay [2] relates to 3T3-L1 pre-adipocytes. Put plainly: Glucose uptake (2-NBDG) by 3T3-L1 pre-adipocytes. The format is cell-based. The method, then:
To validate the relevance of this C. elegans data to a mammalian system, F43 was tested for glucose uptake in 3T3-L1 pre-adipocytes using a fluorescent derivative of glucose, 2-NBD-deoxyglucose (Moon et al., “A Novel Microtubule Destabilizing Entity from Orthogonal Synthesis of Triazine Library and Zebrafish Embryo Screening,” J. Am. Chem. Soc. 124:11608-11609 (2002), which is hereby incorporated by reference in its entirety).
3T3-L1 pre-adipocytes, were grown in DMEM (Dulbecco's Modified Eagle Medium Media) containing 1% antibiotics, and 10% heat-inactivated newborn calf serum under a humidified 5% CO2 atmosphere. The cells were seeded in 48-well plates and allowed to adhere to the dish overnight. Cultures at 70-80% confluence were used for the chemical exposures. […] Fluorescence intensity was measured in a fluorescence micro-plate reader at λex=466 nm and λem=540 nm.
FIGS. 3A-B show the up-regulation of glucose uptake by 3T3-L1 pre-adipocytes upon treatment with Insulin, the TGBz compound F43, and the TGBz compound E3 as a control. […] Following incubation with the dye for 15 min. at 37° C., cells were washed with ice-cold PBS, and the fluorescence intensity was measured. The uptake of the fluorescent 2-NBDG was visualized by a Leica 2000 fluorescence microscope with excitation at 488 nm and long-pass detection at 530 nm and measured by a fluorescence microplate reader. […]

The target in assay [3] is T1, rabbit muscle GAPDH (Oryctolagus cuniculus, UniProt P46406).
T1 construct: host or cells: rabbit muscle
Put plainly: In vitro GAPDH inhibition assay (NADH fluorescence). The format is biochemical. Conditions: 0.2 mM GAP, 0.1 mM NAD+, pH 8.6; read-out: IC50 against GAPDH. The method, then: Rabbit muscle GAPDH and glyceraldehydes-3-phosphate (GAP) were employed. The assay was performed in black polypropylene 96-well micro-titer plates using a 100 μl solution of 100 mM sodium phosphate at pH 8.6, 5 mM EDTA, 0.2 mM GAP, 0.1 mM NAD^+, 0.5 units of GAPDH in the presence of varying concentrations of compound. The reaction was initiated by addition of GAP. Amounts of produced NADH was monitored by a fluorescence plate reader, at λex=340 nm, λem=460 nm (ex=excitation, em=emission wave length) (FIG. 7).

The values that follow come from US7592451B2, “Treatment for diabetes and obesity as well as method of screening compounds useful for such treatments” (New York University, priority 2005, dated 2009).

T1 sequence (P46406 2-333 limits assumed): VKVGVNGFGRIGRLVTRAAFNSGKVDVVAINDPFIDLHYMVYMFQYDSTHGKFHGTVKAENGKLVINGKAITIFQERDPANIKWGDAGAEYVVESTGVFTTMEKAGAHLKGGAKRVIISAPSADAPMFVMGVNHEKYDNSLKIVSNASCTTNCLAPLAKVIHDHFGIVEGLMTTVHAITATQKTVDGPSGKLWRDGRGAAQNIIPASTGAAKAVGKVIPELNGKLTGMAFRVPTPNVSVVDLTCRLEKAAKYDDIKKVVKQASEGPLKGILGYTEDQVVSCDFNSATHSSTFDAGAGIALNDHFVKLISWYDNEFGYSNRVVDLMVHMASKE

For orientation: IC50 means the concentration that inhibits the measured activity by half. In the case of `O=C(NCCOCCOCCNc1nc(NCCc2ccc(O)c(O)c2)nc(Nc2ccccc2)n1)c1ccccc1` [F43], the “effect on dauer formation” value in assay [1] was “inhibits dauer formation”. Also, in assay [2] (15 min incubation, 100 μM 2-NBDG, compound up to 10 μM), the “glucose uptake (2-NBDG fluorescence)” value is given as “dose dependent glucose uptake was observed”. Also, the “glucose uptake on co-treatment with insulin” value in assay [2] (co-treatment with insulin (100 nM), 15 min) is “synergistic effect”. Besides, the IC50 in assay [3] was found to be 4 µM.
